Patent US4401604A, “Process for preparing thiosulfenamide derivatives of N-phosphonomethylglycine triesters” (Monsanto Company, priority 1981, dated 1983)

Legend:
Type in all cases: in vivo
Barnyardgrass [1] = experiment: Post-emergence herbicidal activity, greenhouse
Procedure, shortened: (§1)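 Read-out: visual injury index vs untreated controls, ~2 and ~4 WAT (2-wk reading sometimes omitted). Foliar atomizer spray at ~1.46 kg/cm^2 onto 2–3-wk-old greenhouse plants; test compound diluted from 1.0% w/w stock, ~0.4% w/w emulsifier in spray.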

Canada Thistle [2] = experiment: Post-emergence herbicidal activity, greenhouse; details: Table I, 4 WAT
Procedure, shortened: as §1

Cocklebur [3] = experiment: Post-emergence herbicidal activity, greenhouse
Procedure, shortened: as §1

Crabgrass = experiment: Post-emergence herbicidal activity, greenhouse; details: Table II
Procedure, shortened: as §1

Downy Brome [4] = experiment: Post-emergence herbicidal activity, greenhouse
Procedure, shortened: as §1

Hemp Sesbania = experiment: Post-emergence herbicidal activity, greenhouse; details: Table II
Procedure, shortened: as §1

Johnsongrass [5] = experiment: Post-emergence herbicidal activity, greenhouse; details: Table I, 4 WAT
Procedure, shortened: as §1

Lambsquarters [6] = experiment: Post-emergence herbicidal activity, greenhouse
Procedure, shortened: as §1

Morningglory [7] = experiment: Post-emergence herbicidal activity, greenhouse
Procedure, shortened: as §1

Panicum Spp = experiment: Post-emergence herbicidal activity, greenhouse; details: Table II
Procedure, shortened: as §1

Quackgrass [8] = experiment: Post-emergence herbicidal activity, greenhouse; details: Table I, 4 WAT
Procedure, shortened: as §1

Rice = experiment: Post-emergence herbicidal activity, greenhouse; details: Table II
Procedure, shortened: as §1

Smartweed [9] = experiment: Post-emergence herbicidal activity, greenhouse
Procedure, shortened: as §1

Sorghum = experiment: Post-emergence herbicidal activity, greenhouse; details: Table II
Procedure, shortened: as §1

Soybean = experiment: Post-emergence herbicidal activity, greenhouse; details: Table II
Procedure, shortened: as §1

Sugar Beet = experiment: Post-emergence herbicidal activity, greenhouse; details: Table II
Procedure, shortened: as §1

Velvetleaf [10] = experiment: Post-emergence herbicidal activity, greenhouse
Procedure, shortened: as §1

Wheat = experiment: Post-emergence herbicidal activity, greenhouse; details: Table II
Procedure, shortened: as §1

Wild Buckwheat = experiment: Post-emergence herbicidal activity, greenhouse; details: Table II
Procedure, shortened: as §1

Yellow Nutsedge [11] = experiment: Post-emergence herbicidal activity, greenhouse; details: Table I, 4 WAT
Procedure, shortened: as §1

Barnyardgrass [12] = experiment: Pre-emergent herbicidal activity; details: Table III; 11.2 kg/h; 2 WAT
Procedure, shortened: (§2)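 Read-out is the count of emerged plants per species after roughly two weeks, compared with untreated pans and expressed as an index of average percent control. Compound was mixed into the soil covering the seeds or propagules, with watering from below.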

Canada Thistle [13] = experiment: Pre-emergent herbicidal activity; details: Table III; 11.2 kg/h; 2 WAT
Procedure, shortened: as §2

Cocklebur [14] = experiment: Pre-emergent herbicidal activity; details: Table III; 11.2 kg/h; 2 WAT
Procedure, shortened: as §2

Downy Brome [15] = experiment: Pre-emergent herbicidal activity; details: Table III; 11.2 kg/h; 2 WAT
Procedure, shortened: as §2

Johnsongrass [16] = experiment: Pre-emergent herbicidal activity; details: Table III; 11.2 kg/h; 2 WAT
Procedure, shortened: as §2

Lambsquarters [17] = experiment: Pre-emergent herbicidal activity; details: Table III; 11.2 kg/h; 2 WAT
Procedure, shortened: as §2

Morningglory [18] = experiment: Pre-emergent herbicidal activity; details: Table III; 11.2 kg/h; 2 WAT
Procedure, shortened: as §2

Quackgrass [19] = experiment: Pre-emergent herbicidal activity; details: Table III; 11.2 kg/h; 2 WAT
Procedure, shortened: as §2

Smartweed [20] = experiment: Pre-emergent herbicidal activity; details: Table III; 11.2 kg/h; 2 WAT
Procedure, shortened: as §2

Velvetleaf [21] = experiment: Pre-emergent herbicidal activity; details: Table III; 11.2 kg/h; 2 WAT
Procedure, shortened: as §2

Yellow Nutsedge [22] = experiment: Pre-emergent herbicidal activity; details: Table III; 11.2 kg/h; 2 WAT
Procedure, shortened: as §2

In the case of `O=C(CN(CP(=O)(Oc1ccccc1)Oc1ccccc1)SSCCc1ccccc1)OCc1ccccc1` [IV, Glycine, N-[(diphenoxyphosphinyl)methyl]-N-[(2-phenylethyl)dithio]-, phenylmethyl ester], the “post-emergence herbicidal activity index” value (Barnyardgrass [1]; Table I, 5.6 kg/h, 4 WAT) is reported as 2 (50-74% control), the “post-emergence herbicidal activity index” value (Barnyardgrass [1]; Table I, 11.2 kg/h, 4 WAT) is reported as 2 (50-74% control) and the “post-emergence herbicidal activity index” value (Barnyardgrass [1]; Table II, 0.28 kg/h, 2 WAT) is reported as 0 (0- 24% control). For the same compound, the “post-emergence herbicidal activity index” value (Barnyardgrass [1]; Table II, 1.12 kg/h, 4 WAT) was 0 (0- 24% control), the “post-emergence herbicidal activity index” value (Barnyardgrass [1]; Table II, 5.6 kg/h, 4 WAT) was 4 (100% control) and the “post-emergence herbicidal activity index” value (Canada Thistle [2]; 5.6 kg/h) was 0 (0- 24% control). The “post-emergence herbicidal activity index” value (Canada Thistle [2]; 11.2 kg/h) was 1 (25-49% control), the “post-emergence herbicidal activity index” value (Cocklebur [3]; Table I, 5.6 kg/h, 4 WAT) was 1 (25-49% control) and the “post-emergence herbicidal activity index” value (Cocklebur [3]; Table I, 11.2 kg/h, 4 WAT) was 3 (75-99% control). For the same compound, the “post-emergence herbicidal activity index” value (Cocklebur [3]; Table II, 0.28 kg/h, 2 WAT) was 0 (0- 24% control), the “post-emergence herbicidal activity index” value (Cocklebur [3]; Table II, 1.12 kg/h, 4 WAT) was 1 (25-49% control) and the “post-emergence herbicidal activity index” value (Cocklebur [3]; Table II, 5.6 kg/h, 4 WAT) was 3 (75-99% control). The “post-emergence herbicidal activity index” value (Crabgrass; 0.28 kg/h, 2 WAT) was 0 (0- 24% control), the “post-emergence herbicidal activity index” value (Crabgrass; 1.12 kg/h, 4 WAT) was 2 (50-74% control) and the “post-emergence herbicidal activity index” value (Crabgrass; 5.6 kg/h, 4 WAT) was 4 (100% control). For the same compound, the “post-emergence herbicidal activity index” value (Downy Brome [4]; Table I, 5.6 kg/h, 4 WAT) was 0 (0- 24% control), the “post-emergence herbicidal activity index” value (Downy Brome [4]; Table I, 11.2 kg/h, 4 WAT) was 1 (25-49% control) and the “post-emergence herbicidal activity index” value (Downy Brome [4]; Table II, 0.28 kg/h, 2 WAT) was 0 (0- 24% control). For the same compound, the “post-emergence herbicidal activity index” value (Downy Brome [4]; Table II, 1.12 kg/h, 4 WAT) was 0 (0- 24% control), the “post-emergence herbicidal activity index” value (Downy Brome [4]; Table II, 5.6 kg/h, 4 WAT) was 3 (75-99% control) and the “post-emergence herbicidal activity index” value (Hemp Sesbania; 0.28 kg/h, 2 WAT) was 0 (0- 24% control). For the same compound, the “post-emergence herbicidal activity index” value (Hemp Sesbania; 1.12 kg/h, 4 WAT) was 0 (0- 24% control), the “post-emergence herbicidal activity index” value (Hemp Sesbania; 5.6 kg/h, 4 WAT) was 1 (25-49% control) and the “post-emergence herbicidal activity index” value (Johnsongrass [5]; 5.6 kg/h) was 2 (50-74% control). The “post-emergence herbicidal activity index” value (Johnsongrass [5]; 11.2 kg/h) was 0 (0- 24% control), the “post-emergence herbicidal activity index” value (Lambsquarters [6]; Table I, 5.6 kg/h, 4 WAT) was 3 (75-99% control) and the “post-emergence herbicidal activity index” value (Lambsquarters [6]; Table I, 11.2 kg/h, 4 WAT) was 3 (75-99% control). The “post-emergence herbicidal activity index” value (Lambsquarters [6]; Table II, 0.28 kg/h, 2 WAT) was 0 (0- 24% control), the “post-emergence herbicidal activity index” value (Lambsquarters [6]; Table II, 1.12 kg/h, 4 WAT) was 3 (75-99% control) and the “post-emergence herbicidal activity index” value (Lambsquarters [6]; Table II, 5.6 kg/h, 4 WAT) was 3 (75-99% control). The “post-emergence herbicidal activity index” value (Morningglory [7]; Table I, 5.6 kg/h, 4 WAT) was 2 (50-74% control), the “post-emergence herbicidal activity index” value (Morningglory [7]; Table I, 11.2 kg/h, 4 WAT) was 2 (50-74% control) and the “post-emergence herbicidal activity index” value (Morningglory [7]; Table II, 0.28 kg/h, 2 WAT) was 0 (0- 24% control). For the same compound, the “post-emergence herbicidal activity index” value (Morningglory [7]; Table II, 1.12 kg/h, 4 WAT) was 0 (0- 24% control), the “post-emergence herbicidal activity index” value (Morningglory [7]; Table II, 5.6 kg/h, 4 WAT) was 2 (50-74% control) and the “post-emergence herbicidal activity index” value (Panicum Spp; 0.28 kg/h, 2 WAT) was 0 (0- 24% control). For the same compound, the “post-emergence herbicidal activity index” value (Panicum Spp; 1.12 kg/h, 4 WAT) was 0 (0- 24% control), the “post-emergence herbicidal activity index” value (Panicum Spp; 5.6 kg/h, 4 WAT) was 3 (75-99% control) and the “post-emergence herbicidal activity index” value (Quackgrass [8]; 5.6 kg/h) was 2 (50-74% control). The “post-emergence herbicidal activity index” value (Quackgrass [8]; 11.2 kg/h) was 1 (25-49% control), the “post-emergence herbicidal activity index” value (Rice; 0.28 kg/h, 2 WAT) was 0 (0- 24% control) and the “post-emergence herbicidal activity index” value (Rice; 1.12 kg/h, 4 WAT) was 0 (0- 24% control). For the same compound, the “post-emergence herbicidal activity index” value (Rice; 5.6 kg/h, 4 WAT) was 1 (25-49% control), the “post-emergence herbicidal activity index” value (Smartweed [9]; Table I, 5.6 kg/h, 4 WAT) was 1 (25-49% control) and the “post-emergence herbicidal activity index” value (Smartweed [9]; Table I, 11.2 kg/h, 4 WAT) was 2 (50-74% control). The “post-emergence herbicidal activity index” value (Smartweed [9]; Table II, 0.28 kg/h, 2 WAT) was 0 (0- 24% control), the “post-emergence herbicidal activity index” value (Smartweed [9]; Table II, 1.12 kg/h, 4 WAT) was 1 (25-49% control) and the “post-emergence herbicidal activity index” value (Smartweed [9]; Table II, 5.6 kg/h, 4 WAT) was 2 (50-74% control). For the same compound, the “post-emergence herbicidal activity index” value (Sorghum; 0.28 kg/h, 2 WAT) was 0 (0- 24% control), the “post-emergence herbicidal activity index” value (Sorghum; 1.12 kg/h, 4 WAT) was 0 (0- 24% control) and the “post-emergence herbicidal activity index” value (Sorghum; 5.6 kg/h, 4 WAT) was 2 (50-74% control). The “post-emergence herbicidal activity index” value (Soybean; 0.28 kg/h, 2 WAT) was 0 (0- 24% control), the “post-emergence herbicidal activity index” value (Soybean; 1.12 kg/h, 4 WAT) was 0 (0- 24% control) and the “post-emergence herbicidal activity index” value (Soybean; 5.6 kg/h, 4 WAT) was 2 (50-74% control). The “post-emergence herbicidal activity index” value (Sugar Beet; 0.28 kg/h, 2 WAT) was 0 (0- 24% control), the “post-emergence herbicidal activity index” value (Sugar Beet; 1.12 kg/h, 4 WAT) was 3 (75-99% control) and the “post-emergence herbicidal activity index” value (Sugar Beet; 5.6 kg/h, 4 WAT) was 4 (100% control). The “post-emergence herbicidal activity index” value (Velvetleaf [10]; Table I, 5.6 kg/h, 4 WAT) was 0 (0- 24% control), the “post-emergence herbicidal activity index” value (Velvetleaf [10]; Table I, 11.2 kg/h, 4 WAT) was 1 (25-49% control) and the “post-emergence herbicidal activity index” value (Velvetleaf [10]; Table II, 0.28 kg/h, 2 WAT) was 0 (0- 24% control). The “post-emergence herbicidal activity index” value (Velvetleaf [10]; Table II, 1.12 kg/h, 4 WAT) was 0 (0- 24% control), the “post-emergence herbicidal activity index” value (Velvetleaf [10]; Table II, 5.6 kg/h, 4 WAT) was 2 (50-74% control) and the “post-emergence herbicidal activity index” value (Wheat; 0.28 kg/h, 2 WAT) was 0 (0- 24% control). The “post-emergence herbicidal activity index” value (Wheat; 1.12 kg/h, 4 WAT) was 1 (25-49% control), the “post-emergence herbicidal activity index” value (Wheat; 5.6 kg/h, 4 WAT) was 3 (75-99% control) and the “post-emergence herbicidal activity index” value (Wild Buckwheat; 0.28 kg/h, 2 WAT) was 0 (0- 24% control). For the same compound, the “post-emergence herbicidal activity index” value (Wild Buckwheat; 1.12 kg/h, 4 WAT) was 0 (0- 24% control), the “post-emergence herbicidal activity index” value (Wild Buckwheat; 5.6 kg/h, 4 WAT) was 2 (50-74% control) and the “post-emergence herbicidal activity index” value (Yellow Nutsedge [11]; 5.6 kg/h) was 0 (0- 24% control). For the same compound, the “post-emergence herbicidal activity index” value (Yellow Nutsedge [11]; 11.2 kg/h) was 1 (25-49% control), the “pre-emergent herbicidal activity index” value (Barnyardgrass [12]) was 0 (0-24% control) and the “pre-emergent herbicidal activity index” value (Canada Thistle [13]) was 3 (75-100% control). The “pre-emergent herbicidal activity index” value (Cocklebur [14]) was 0 (0-24% control), the “pre-emergent herbicidal activity index” value (Downy Brome [15]) was 0 (0-24% control) and the “pre-emergent herbicidal activity index” value (Johnsongrass [16]) was 0 (0-24% control). For the same compound, the “pre-emergent herbicidal activity index” value (Lambsquarters [17]) was 0 (0-24% control), the “pre-emergent herbicidal activity index” value (Morningglory [18]) was 0 (0-24% control) and the “pre-emergent herbicidal activity index” value (Quackgrass [19]) was 1 (25-49% control). The “pre-emergent herbicidal activity index” value (Smartweed [20]) was 0 (0-24% control), the “pre-emergent herbicidal activity index” value (Velvetleaf [21]) was 0 (0-24% control) and the “pre-emergent herbicidal activity index” value (Yellow Nutsedge [22]) was 0 (0-24% control).
